How the values were obtained:
[1] = Sensory evaluation of aqueous solution II containing (E)-2-octenal 10 ppb: off-flavor intensity and masking component intensity; conditions: average panel score
Method in brief: (§1)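 Nootkatone was added to ion-exchanged water spiked with the degradation component, and eight experienced panelists scored the samples. Off-flavor was rated relative to anchors: unmasked spiked solution = 4, plain water = 0. Masking-component intensity was rated absolutely on a 0–4 scale.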

[2] = Sensory evaluation of aqueous solution VI containing 1,5-octadien-3-ol 10 ppb: off-flavor intensity and masking component intensity; conditions: aqueous solution VI, average panel score
Method in brief: as §1

[3] = Sensory evaluation of aqueous solution III containing 1-octen-3-one 1 ppb: off-flavor intensity and masking component intensity; conditions: average panel score
Method in brief: as §1

[4] = Sensory evaluation of aqueous solution I containing (E)-2-nonenal 1 ppb: off-flavor intensity and masking component intensity; conditions: average panel score
Method in brief: as §1

[5] = Overall conclusion of the sensory evaluation across aqueous solutions I to VI
Method in brief: as §1

[6] = Sensory evaluation of aqueous solution IV containing 1,5-octadien-3-one 100 ppt: off-flavor intensity and masking component intensity; conditions: aqueous solution IV, average panel score
Method in brief: as §1

[7] = Sensory evaluation of aqueous solution V containing 1-octen-3-ol 10 ppb: off-flavor intensity and masking component intensity; conditions: average panel score
Method in brief: as §1

C=CC(C)(O)CCC=C(C)CCC=C(C)C (centres unmarked) [nerolidol]
Masking Component Intensity ([1]; 1 ppb added): 0.4
Off-Flavor Intensity ([1]; 1 ppb added): 2.6
Masking Component Intensity ([1]; 1 ppm added): 2.4
Off-Flavor Intensity ([1]; 1 ppm added): 1.5
Masking Component Intensity ([1]; 5 ppm added): 3.4
Off-Flavor Intensity ([1]; 5 ppm added): 0.8
Masking Component Intensity ([1]; 10 ppb added): 0.8
Off-Flavor Intensity ([1]; 10 ppb added): 2.3
Masking Component Intensity ([1]; 10 ppm added): 3.8
Off-Flavor Intensity ([1]; 10 ppm added): 0.5
Masking Component Intensity ([1]; 10 ppt added): 0.0
Off-Flavor Intensity ([1]; 10 ppt added): 3.4
Masking Component Intensity ([1]; 100 ppb added): 1.5
Off-Flavor Intensity ([1]; 100 ppb added): 1.9
Masking Component Intensity ([1]; 100 ppt added): 0.1
Off-Flavor Intensity ([1]; 100 ppt added): 3.0
Masking Component Intensity ([2]; 1 ppb added): 0.3
Off-Flavor Intensity ([2]; 1 ppb added): 3.1
Masking Component Intensity ([2]; 1 ppm added): 2.5
Off-Flavor Intensity ([2]; 1 ppm added): 1.8
Masking Component Intensity ([2]; 5 ppm added): 3.5
Off-Flavor Intensity ([2]; 5 ppm added): 1.1
Masking Component Intensity ([2]; 10 ppb added): 0.8
Off-Flavor Intensity ([2]; 10 ppb added): 2.4
Masking Component Intensity ([2]; 10 ppm added): 3.9
Off-Flavor Intensity ([2]; 10 ppm added): 0.8
Masking Component Intensity ([2]; 10 ppt added): 0.0
Off-Flavor Intensity ([2]; 10 ppt added): 3.5
Masking Component Intensity ([2]; 100 ppb added): 1.3
Off-Flavor Intensity ([2]; 100 ppb added): 2.1
Masking Component Intensity ([2]; 100 ppt added): 0.1
Off-Flavor Intensity ([2]; 100 ppt added): 3.3
Masking Component Intensity ([3]; 1 ppb added): 0.4
Off-Flavor Intensity ([3]; 1 ppb added): 3.0
Masking Component Intensity ([3]; 1 ppm added): 2.1
Off-Flavor Intensity ([3]; 1 ppm added): 1.5
Masking Component Intensity ([3]; 5 ppm added): 3.4
Off-Flavor Intensity ([3]; 5 ppm added): 0.9
Masking Component Intensity ([3]; 10 ppb added): 0.8
Off-Flavor Intensity ([3]; 10 ppb added): 2.5
Masking Component Intensity ([3]; 10 ppm added): 3.6
Off-Flavor Intensity ([3]; 10 ppm added): 0.4
Masking Component Intensity ([3]; 10 ppt added): 0.1
Off-Flavor Intensity ([3]; 10 ppt added): 3.6
Masking Component Intensity ([3]; 100 ppb added): 1.5
Off-Flavor Intensity ([3]; 100 ppb added): 2.0
Masking Component Intensity ([3]; 100 ppt added): 0.3
Off-Flavor Intensity ([3]; 100 ppt added): 3.4
Masking Component Intensity ([4]; 1 ppb added): 0.4
Off-Flavor Intensity ([4]; 1 ppb added): 2.8
Masking Component Intensity ([4]; 1 ppm added): 2.0
Off-Flavor Intensity ([4]; 1 ppm added): 1.6
Masking Component Intensity ([4]; 5 ppm added): 2.9
Off-Flavor Intensity ([4]; 5 ppm added): 1.0
Masking Component Intensity ([4]; 10 ppb added): 0.6
Off-Flavor Intensity ([4]; 10 ppb added): 2.4
Masking Component Intensity ([4]; 10 ppm added): 3.8
Off-Flavor Intensity ([4]; 10 ppm added): 0.8
Masking Component Intensity ([4]; 10 ppt added): 0.1
Off-Flavor Intensity ([4]; 10 ppt added): 3.6
Masking Component Intensity ([4]; 100 ppb added): 1.1
Off-Flavor Intensity ([4]; 100 ppb added): 2.0
Masking Component Intensity ([4]; 100 ppt added): 0.3
Off-Flavor Intensity ([4]; 100 ppt added): 3.3
concentration that masks the off-flavor and does not affect the flavor of the food and/or beverage itself, lower limit [5]: ≥ 100 ppt
concentration that masks the off-flavor and does not affect the flavor of the food and/or beverage itself, upper limit [5]: ≤ 5 ppm
Masking Component Intensity ([6]; 1 ppb added): 0.4
Off-Flavor Intensity ([6]; 1 ppb added): 3.1
Masking Component Intensity ([6]; 1 ppm added): 2.0
Off-Flavor Intensity ([6]; 1 ppm added): 2.3
Masking Component Intensity ([6]; 5 ppm added): 3.0
Off-Flavor Intensity ([6]; 5 ppm added): 1.9
Masking Component Intensity ([6]; 10 ppb added): 0.6
Off-Flavor Intensity ([6]; 10 ppb added): 3.0
Masking Component Intensity ([6]; 10 ppm added): 3.6
Off-Flavor Intensity ([6]; 10 ppm added): 1.4
Masking Component Intensity ([6]; 10 ppt added): 0.1
Off-Flavor Intensity ([6]; 10 ppt added): 3.6
Masking Component Intensity ([6]; 100 ppb added): 1.3
Off-Flavor Intensity ([6]; 100 ppb added): 2.6
Masking Component Intensity ([6]; 100 ppt added): 0.1
Off-Flavor Intensity ([6]; 100 ppt added): 3.4
Masking Component Intensity ([7]; 1 ppb added): 0.6
Off-Flavor Intensity ([7]; 1 ppb added): 2.6
Masking Component Intensity ([7]; 1 ppm added): 2.6
Off-Flavor Intensity ([7]; 1 ppm added): 1.6
Masking Component Intensity ([7]; 5 ppm added): 3.5
Off-Flavor Intensity ([7]; 5 ppm added): 1.0
Masking Component Intensity ([7]; 10 ppb added): 0.9
Off-Flavor Intensity ([7]; 10 ppb added): 2.5
Masking Component Intensity ([7]; 10 ppm added): 3.9
Off-Flavor Intensity ([7]; 10 ppm added): 0.6
Masking Component Intensity ([7]; 10 ppt added): 0.1
Off-Flavor Intensity ([7]; 10 ppt added): 3.6
Masking Component Intensity ([7]; 100 ppb added): 1.4
Off-Flavor Intensity ([7]; 100 ppb added): 2.1
Masking Component Intensity ([7]; 100 ppt added): 0.3
Off-Flavor Intensity ([7]; 100 ppt added): 3.1

Reference: US20250176599A1, “FLAVOR COMPOSITION AND FOOD AND BEVERAGE” (TAKASAGO INTERNATIONAL CORPORATION, priority 2021, published 2025)
